{"source": "paper PMC11960843", "about": "“Exploration of the tunability of BRD4 degradation by DCAF16 trans-labelling covalent glues” (European journal of medicinal chemistry, 2024)", "key": {"BRD4 [1]": {"target": "T1, BRD4 (Homo sapiens, UniProt O60885)", "test": "Washout experiment, Western blot of BRD4 degradation in K562 cells", "assay_type": "cell-based", "set-up": "an 11 amino acid peptide knock-in tag to a protein-of-interest using CRISPR insertion; endogenous in cells", "settings": "K562, 1 μM, 4 h treatment, washout, 20 h compound-free vs 24 h no washout", "description": "This experiment involves cell treatment and incubation with a ‘covalent’ compound, followed by a wash-step where the cells are washed and resuspended in compound-free cell media.\nCells were washed with PBS and lysed in RIPA lysis buffer (Thermo Fisher Scientific) with Halt Protease Inhibitor Cocktail (Thermo Fisher Scientific) and Benzonase (Sigma-Aldrich) for 20 min on ice. […] Membranes were blocked in Intercept (PBS) Blocking Buffer (LI-COR Biosciences) and incubated with primary antibodies overnight at 4 °C. The membranes were then washed in Tris-buffered saline with Tween-20 (TBS-T), incubated for 1 h with secondary IRDye-conjugated antibodies (LI-COR Biosciences) and washed three times in TBS-T for 5 min before near-infrared western blot detection on an Odyssey Imaging System (LI-COR Biosciences)."}, "BRD4BD2": {"target": "BRD4BD2 (Homo sapiens, UniProt O60885)", "test": "BRD4BD2-eGFP and mCherry flow reporter degradation assay, wild type K562 cells", "quoted_text": "This assay involves the co-expression of mCherry with BRD4BD1/2 fused to an enhanced green fluorescent protein (eGFP) tag, and the subsequent fluorescence measurement of BRD4BD1/2-eGFP normalized to mCherry as a readout for BRD4BD1/2 degradation. It allows for a quantitative, rapid, and facile screening of several MGDs, in a dose-and time-dependent manner. […] Thus, the BRD4BD2 stability system was used to test all subsequent GNE011 analogs in wild type and DCAF16−/− cells.\nOne day after infection, reporter cells were selected with puromycin at a concentration of 2 μg/mL.\nK562 cells stably expressing degradation reporter were dosed with DMSO or degraders at various times and concentrations using D300e Digital Dispenser (HP). The fluorescent signal was quantified by flow cytometry (LSRFortessa flow cytometer, BD Biosciences) and analyzed using FlowJo (flow cytometry analysis software, BD Biosciences). The geometric mean of the eGFP and mCherry fluorescent signal for round and mCherry-positive cells was calculated. GFP expression was normalized to mCherry signal and drug treatments were compared to DMSO controls."}, "BRD4 [2]": {"target": "T1, BRD4", "test": "Western blot of BRD4 degradation, wild-type K562 cells", "assay_type": "cell-based", "set-up": "an 11 amino acid peptide knock-in tag to a protein-of-interest using CRISPR insertion; endogenous in cells", "settings": "wild-type K562, 1 μM, 16 h", "description": "(§1) Western blotting was used to determine the degradation potencies of the covalent BRD4 degraders.\n(§2) Cells were washed with PBS and lysed in RIPA lysis buffer (Thermo Fisher Scientific) with Halt Protease Inhibitor Cocktail (Thermo Fisher Scientific) and Benzonase (Sigma-Aldrich) for 20 min on ice. The insoluble fraction was removed by centrifugation, the protein concentration was quantified using a BCA protein assay kit (Thermo Fisher Scientific), and an equal amount of lysate was run on SDS–PAGE 4–12% Bis–Tris Protein Gels (Thermo Fisher Scientific) and then transferred to nitrocellulose membrane with a XCell II Blot Module Wet Tank Transfer System (Thermo Fisher Scientific). Membranes were blocked in Intercept (PBS) Blocking Buffer (LI-COR Biosciences) and incubated with primary antibodies overnight at 4 °C. The membranes were then washed in Tris-buffered saline with Tween-20 (TBS-T), incubated for 1 h with secondary IRDye-conjugated antibodies (LI-COR Biosciences) and washed three times in TBS-T for 5 min before near-infrared western blot detection on an Odyssey Imaging System (LI-COR Biosciences)."}, "[3]": {"target": "T2, BRD4BD2-DCAF16 ternary complex (Homo sapiens, UniProt O60885+Q9NXF7)", "T2 construct": "E3 ligase to bromodomain 2 (BRD4BD2); His6 (N); StrepII (N); Avi (N); made in house; host or cells: BRD4BD2: E. coli (pET100/D-TOPO)", "T2 sequence (Q9NXF7 whole entry, other chains not shown)": "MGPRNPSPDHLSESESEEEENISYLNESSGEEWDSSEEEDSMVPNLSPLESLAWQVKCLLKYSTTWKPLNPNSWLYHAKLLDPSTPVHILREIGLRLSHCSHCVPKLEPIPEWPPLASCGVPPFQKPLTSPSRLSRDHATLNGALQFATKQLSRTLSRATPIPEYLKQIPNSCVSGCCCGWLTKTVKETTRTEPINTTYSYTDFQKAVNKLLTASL", "test": "DDB1-DCAF16-BRD4BD2 TR-FRET ternary complex formation assay", "assay_type": "biochemical", "description": "To determine the relationship between covalent warheads and DCAF16 recruitment to BRD4BD2, we used a time-resolved fluorescence energy transfer (TR-FRET) assay to measure induced BRD4BD2-DCAF16 ternary complex formation (Fig. 3A).\nFurthermore, we wanted to determine the kinetics of the BRD4BD2-DCAF16 interaction given its covalent nature. […] Additionally, to understand the relationship between ternary complex formation kinetics and warhead reactivity we measured the depletion of the covalent analogs in the presence of glutathione using MS (Table S2). […] Titrations of compounds to induce the DCAF16-BRD4BD complex were carried out by mixing 100 nM biotinylated BRD4BD2, 500 nM BODIPY-FL labeled DDB1ΔB-DCAF16 variants, and 2 nM terbium-coupled streptavidin (Invitrogen) in an assay buffer containing 50 mM HEPES pH 8.0, 200 mM NaCl, 0.1% Pluronic F-68 solution (Sigma), 0.5% bovine serum albumin (BSA) (w/v) and 1 mM TCEP. […] The TR-FRET signal of each data point was extracted by calculating the 520/490 nm ratio."}, "[4]": {"test": "GSH stability (glutathione reactivity) assay by LC-MS/MS", "assay_type": "physicochemical", "settings": "phosphate buffered saline (PBS) without glutathione, extrapolated from 240 min assay"}, "BRD4 [5]": {"target": "T1, BRD4", "test": "BRD4-HiBiT assay, DCAF16 KO JURKAT cells", "assay_type": "cell-based", "set-up": "an 11 amino acid peptide knock-in tag to a protein-of-interest using CRISPR insertion; endogenous in cells; host or cells: JURKAT, HiBiT-edited (wild type or DCAF16 knockout)", "settings": "6 h", "description": "(§3) Thereafter, we sought to characterize the BRD4 cellular degradation potencies in a dose-dependent manner at a shorter time point to minimize secondary effects. This was performed using the bioluminescent HiBiT-BRD4 assay, which consists of an 11 amino acid peptide knock-in tag to a protein-of-interest using CRISPR insertion. A complementary polypeptide (LgBiT) detects and interacts with all HiBiT tagged proteins, thereby reconstituting a luminescent NanoBiT enzyme, that can be quantified by its bioluminescence. WT and DCAF16 KO JURKAT cell lines expressing the BRD4-HiBiT system were generated to quantify dose-dependent BRD4 degradation after 6 h incubation (Fig. 4C).\n(§4) After 6 h, the plates were subjected to Nano-Glo HiBiT Lytic detection system (Promega, #N3040) as described in manufacturer's manual. The assays were performed in biological triplicate. DC50 values were determined using a non-linear regression curve fit in GraphPad PRISM 9.5.1."}, "BRD4 [6]": {"target": "T1, BRD4", "test": "Western blot of BRD4 degradation, DCAF16 KO K562 cells", "assay_type": "cell-based", "set-up": "an 11 amino acid peptide knock-in tag to a protein-of-interest using CRISPR insertion; endogenous in cells", "settings": "DCAF16 KO K562, 1 μM, 16 h", "description": "as §1, §2"}, "BRD4BD1": {"target": "BRD4BD1 (Homo sapiens, UniProt O60885)", "test": "BRD4 AlphaScreen competition assay (JQ1-biotin displacement), BRD4BD1", "assay_type": "binding", "settings": "read-out: IC50 BRD4BD1"}, "BRD4 [7]": {"target": "T1, BRD4", "test": "BRD4-HiBiT assay, WT JURKAT cells", "assay_type": "cell-based", "set-up": "an 11 amino acid peptide knock-in tag to a protein-of-interest using CRISPR insertion; endogenous in cells; host or cells: JURKAT, HiBiT-edited (wild type or DCAF16 knockout)", "settings": "6 h", "description": "as §3, §4"}, "glutathione": {"tested_on": "glutathione", "test": "GSH stability (glutathione reactivity) assay by LC-MS/MS", "assay_type": "physicochemical", "settings": "PBS containing 5 mM reduced glutathione; PBS + 5 mM GSH; extrapolated from 240 min assay", "description": "Furthermore, we wanted to determine the kinetics of the BRD4BD2-DCAF16 interaction given its covalent nature. […] Additionally, to understand the relationship between ternary complex formation kinetics and warhead reactivity we measured the depletion of the covalent analogs in the presence of glutathione using MS (Table S2). […]."}}}
{"compound": "Cc1sc2c(c1C)C(c1ccc(C#CC(N)=O)cc1)=N[C@@H](CC(=O)OC(C)(C)C)c1nnc(C)n1-2", "note": "[MMH287, tert-butyl (S)-2-(4-(4-(3-amino-3-oxoprop-1-yn-1-yl)phenyl)-2,3,9-trimethyl-6H-thieno[3,2-f][1,2,4]triazolo[4,3-a][1,4]diazepin-6-yl)acetate]", "values": [{"measurement": "BRD4 degradation after washout compared to no washout (in words)", "setting": "BRD4 [1]", "result": "nearly a complete rescue"}, {"measurement": "Dmax", "setting": "BRD4BD2; K562, read-out: maximal degradation (Dmax/16h) of BRD4BD2, K562 cells, 16 h incubation", "result": 69, "unit": "%"}, {"measurement": "DC50", "setting": "BRD4BD2; read-out: DC50 of BRD4BD2 degradation, K562 cells, 16 h incubation", "result": 51, "unit": "nM"}, {"measurement": "BRD4 degradation by Western blot (in words)", "setting": "BRD4 [2]", "result": "nearly complete BRD4 degradation"}, {"measurement": "TR-FRETmax (520 nm/490 nm ratio)", "setting": "[3]; 6 h degrader incubation", "result": 0.15}, {"measurement": "BRD4BD2-DCAF16 ternary complex formation / DCAF16 recruitment (in words)", "setting": "[3]; time-dependent TR-FRET", "result": "almost no increase in ternary complex formation"}, {"measurement": "half-life", "setting": "[4]", "result": "> 12.5", "unit": "h"}, {"measurement": "BRD4 degradation in DCAF16 KO (in words)", "setting": "BRD4 [5]", "result": "completely rescued by DCAF16 KO"}, {"measurement": "BRD4 degradation by Western blot in DCAF16 KO (in words)", "setting": "BRD4 [6]", "result": "completely rescued by DCAF16 KO"}, {"measurement": "IC50", "setting": "BRD4BD1", "result": 12.9, "unit": "nM"}, {"measurement": "BRD4 degradation (in words)", "setting": "BRD4 [7]", "result": "noticeable BRD4 degradation"}, {"measurement": "half-life", "setting": "glutathione", "result": 6.33, "unit": "h"}]}
